Measurements reported in PubChem BioAssay (NCI).
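Five compound concentrations were applied to cells in 96-well plates for 48 hours; endpoints were derived by simple linear interpolation of the resulting dose-response curve. GI50 = concentration required for 50% inhibition of growth. TGI marks complete inhibition of growth.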

Columns and labels:
Test in all cases: inhibition of tumour cell growth, NCI panel, 48 h
[1] = system: BT-549 breast
[2] = system: OVCAR-4 ovarian
[3] = system: MDA-MB-435
[4] = system: NCI-H23 lung
[5] = system: TK-10 renal
[6] = system: LOX IMVI melanoma
[7] = system: SF-268 CNS
[8] = system: SK-MEL-5 melanoma
[9] = system: DU-145 prostate
[10] = system: SK-MEL-2 melanoma
[11] = system: NCI-H226 lung
[12] = system: UACC-257 melanoma
[13] = system: M14 melanoma
[14] = system: CAKI-1 renal
[15] = system: RPMI-8226 leukemia
[16] = system: OVCAR-5 ovarian
[17] = system: UACC-62 melanoma
[18] = system: HCT-116 colon
[19] = system: SNB-75 CNS
[20] = system: U251 CNS
[21] = system: COLO 205 colon
[22] = system: MOLT-4 leukemia
[23] = system: ACHN renal
[24] = system: RXF 393 renal
[25] = system: K-562 leukemia
[26] = system: PC-3 prostate
[27] = system: HOP-92 NSCLC
[28] = system: HOP-62 NSCLC
[29] = system: CCRF-CEM leukemia
[30] = system: OVCAR-3 ovarian
[31] = system: SNB-19 CNS
[32] = system: EKVX NSCLC
[33] = system: SF-295 CNS
[34] = system: MDA-MB-231 breast
[35] = system: SW-620 colon
[36] = system: NCI-H460 lung
[37] = system: UO-31 renal
[38] = system: NCI/ADR-RES ovarian
[39] = system: A498 renal
[40] = system: KM12 colon
[41] = system: HT29 colon
[42] = system: HCC-2998 colon
[43] = system: A549 NSCLC
[44] = system: SK-MEL-28 melanoma
[45] = system: SR leukemia
[46] = system: OVCAR-8 ovarian
[47] = system: MCF7 breast
[48] = system: HCT-15 colon
[49] = system: NCI-H522 lung
[50] = system: 786-0 renal
[51] = system: SN12C renal
[52] = system: HS 578T breast
[53] = system: IGROV1 ovarian
[54] = system: HL-60(TB) leukemia

For Cc1cc(C)c(-c2cc(O)c(-c3c(C)cc(C)cc3C)cc2O)c(C)c1, the GI50 [1] was 6.39 µM, the TGI [1] was > 100 µM and the GI50 [2] was 7.6 µM. For the same compound, the TGI [2] was > 100 µM, the GI50 [3] was 482 nM and the TGI [3] was > 100 µM. For the same compound, the GI50 [4] was 4.05 µM, the TGI [4] was > 100 µM and the GI50 [5] was > 100 µM. For the same compound, the TGI [5] was > 100 µM, the GI50 [6] was 4.39 µM and the TGI [6] was > 100 µM. For the same compound, the GI50 [7] was 5.83 µM, the TGI [7] was > 100 µM and the GI50 [8] was 1610 nM. For the same compound, the TGI [8] was 31.2 µM, the GI50 [9] was 3.35 µM and the TGI [9] was 15.2 µM. The GI50 [10] was 4.55 µM, the TGI [10] was > 100 µM and the GI50 [11] was 38.7 µM. The TGI [11] was > 100 µM, the GI50 [12] was > 100 µM and the TGI [12] was > 100 µM. The GI50 [13] was 2770 nM, the TGI [13] was > 100 µM and the GI50 [14] was 4.23 µM. For the same compound, the TGI [14] was > 100 µM, the GI50 [15] was 5.82 µM and the TGI [15] was > 100 µM. The GI50 [16] was 11.3 µM, the TGI [16] was > 100 µM and the GI50 [17] was 3.18 µM. For the same compound, the TGI [17] was > 100 µM, the GI50 [18] was 3.51 µM and the TGI [18] was > 100 µM. For the same compound, the GI50 [19] was 2870 nM, the TGI [19] was > 100 µM and the GI50 [20] was 4.22 µM. For the same compound, the TGI [20] was > 100 µM, the GI50 [21] was 2270 nM and the TGI [21] was 5.68 µM. For the same compound, the GI50 [22] was 6.93 µM, the TGI [22] was > 100 µM and the GI50 [23] was 7.43 µM. The TGI [23] was > 100 µM, the GI50 [24] was 2770 nM and the TGI [24] was > 100 µM. For the same compound, the GI50 [25] was 2910 nM, the TGI [25] was > 100 µM and the GI50 [26] was 4.44 µM. For the same compound, the TGI [26] was > 100 µM, the GI50 [27] was 37.2 µM and the TGI [27] was > 100 µM. For the same compound, the GI50 [28] was 4.55 µM, the TGI [28] was > 100 µM and the GI50 [29] was 4.1 µM. The TGI [29] was > 100 µM, the GI50 [30] was 2050 nM and the TGI [30] was 4.85 µM. For the same compound, the GI50 [31] was 3.58 µM, the TGI [31] was > 100 µM and the GI50 [32] was 5.83 µM. The TGI [32] was > 100 µM, the GI50 [33] was 2680 nM and the TGI [33] was > 100 µM. The GI50 [34] was 3.29 µM, the TGI [34] was 11.3 µM and the GI50 [35] was 3.17 µM. The TGI [35] was > 100 µM, the GI50 [36] was 3.45 µM and the TGI [36] was > 100 µM. For the same compound, the GI50 [37] was 9.7 µM, the TGI [37] was > 100 µM and the GI50 [38] was 4.33 µM. The TGI [38] was > 100 µM, the GI50 [39] was 2580 nM and the TGI [39] was > 100 µM. For the same compound, the GI50 [40] was 2190 nM, the TGI [40] was > 100 µM and the GI50 [41] was 3.18 µM. The TGI [41] was 65.1 µM, the GI50 [42] was 2900 nM and the TGI [42] was > 100 µM. The GI50 [43] was 4.6 µM, the TGI [43] was > 100 µM and the GI50 [44] was 8.14 µM. The TGI [44] was > 100 µM, the GI50 [45] was 2430 nM and the TGI [45] was > 100 µM. For the same compound, the GI50 [46] was 5.37 µM, the TGI [46] was > 100 µM and the GI50 [47] was 2460 nM. The TGI [47] was > 100 µM, the GI50 [48] was 3.73 µM and the TGI [48] was > 100 µM. For the same compound, the GI50 [49] was 1740 nM, the TGI [49] was 4.46 µM and the GI50 [50] was 6.49 µM. For the same compound, the TGI [50] was > 100 µM, the GI50 [51] was 5.52 µM and the TGI [51] was > 100 µM. For the same compound, the GI50 [52] was 3.29 µM, the TGI [52] was > 100 µM and the GI50 [53] was 4.18 µM. The TGI [53] was > 100 µM, the GI50 [54] was 3.21 µM and the TGI [54] was > 100 µM.
